Experimental data published in publication PMC6010916, “Safety and pharmacokinetics of veliparib extended‐release in patients with advanced solid tumors: a phase I study” (Cancer Medicine, 2018).

How the values were obtained:
[1] = test system: advanced solid tumors (ovarian, breast carcinoma); test: Time to disease progression (TTP); type: in vivo, human
Protocol: (§1) Adverse event (AE) severity was assessed according to the National Cancer Institute Common Terminology Criteria for Adverse Events (NCI CTCAE) version 4.0. Tumor evaluations were performed at screening, every 8 weeks after the first administration of study drug, and at the final visit using radiographic measurements from computed tomography or magnetic resonance imaging. Objective tumor responses were evaluated using RECIST version 1.1 criteria. Patients who received one or more doses of veliparib were included in the PK and safety analyses, as well as for evaluation of time to disease progression (TTP). Patients with one or more measurable lesion at baseline were included in the analysis of objective responses.

[2] = test system: ovarian and breast carcinoma; test: Objective tumor response (RECIST version 1.1); type: in vivo, human
Protocol: as §1

[3] = test system: non-small-cell lung cancer; triple-negative breast cancer; set-up: method as in earlier work; conditions: combined with carboplatin and paclitaxel; preliminary results; cited from earlier work
[4] = Safety: treatment-emergent adverse events (NCI CTCAE version 4.0); type: in vivo, human; conditions: All cycles
Protocol: as §1

[5] = 16 evaluable patients with breast carcinoma (all BRCA mutation carriers)
[6] = 42 evaluable breast and ovarian carcinoma patients with deleterious BRCA mutations
[7] = 44 evaluable patients with ovarian carcinoma
[8] = Deleterious BRCA mutation, Breast (n = 16)
[9] = Deleterious BRCA mutation, Ovarian (n = 26)
[10] = Deleterious BRCA mutation, Overall (N = 42)

C[C@]1(c2nc3c(C(N)=O)cccc3[nH]2)CCCN1 [veliparib]
6-month TTP rate ([1]; breast carcinoma (n = 17)): 53.5% | 6-month TTP rate ([1]; deleterious BRCA mutations, breast carcinoma): 53.5% | 6-month TTP rate ([1]; deleterious BRCA mutations, ovarian carcinoma): 35.7% | 6-month TTP rate ([1]; ovarian carcinoma (n = 53)): 31.8% | 6-month TTP rate (had not progressed at 6 months) ([1]; overall (N = 71)): 38.1% | median TTP ([1]; overall population (N = 71)): 149 days | 6-month TTP rate ([1]; patients with deleterious BRCA mutations): 43.0% | 6-month TTP rate ([1]; patients without BRCA mutations): 22.9% | 6-month TTP rate ([1]; unknown BRCA mutation status): 27.8% | confirmed partial responses [2, 5]: 25.0% | partial response (confirmed and unconfirmed) [2, 5]: 62.5% | confirmed partial responses ([2]; 16 patients with breast carcinoma and deleterious BRCA mutations): 25.0% | confirmed partial responses ([2]; 26 patients with ovarian carcinoma and deleterious BRCA mutations): 11.5% | confirmed partial responses [2, 6]: 16.7% | partial response (confirmed and unconfirmed) [2, 6]: 40.5% | confirmed partial responses [2, 7]: 11.4% | partial response (confirmed and unconfirmed) [2, 7]: 27.3% | confirmed overall ORR ([2]; 60 evaluable patients): 15% | overall (confirmed and unconfirmed) ORR ([2]; 60 evaluable patients): 36.7% | CR, confirmed ([2]; Breast (n = 16)): 0 n (%) | ORR (CR + PR), confirmed ([2]; Breast (n = 16)): 4 (25.0)— n/N (%) (95% CI) | PR, confirmed ([2]; Breast (n = 16)): 4 (25.0) n (%) | CR, confirmed [2, 8]: 0 n (%) | ORR (CR + PR), confirmed [2, 8]: 4 (25.0) n/N (%) | PR, confirmed [2, 8]: 4 (25.0) n (%) | CR, confirmed [2, 9]: 0 n (%) | ORR (CR + PR), confirmed [2, 9]: 3 (11.5) n/N (%) | PR, confirmed [2, 9]: 3 (11.5) n (%) | CR, confirmed [2, 10]: 0 n (%) | PR, confirmed [2, 10]: 7 (16.7) n (%) | CR, confirmed ([2]; Ovarian (n = 44)): 0 n (%) | PR, confirmed ([2]; Ovarian (n = 44)): 5 (11.4) n (%) | ORR (CR + PR), confirmed ([2]; Ovarian (n = 44), measurable lesion at baseline): 5 (11.4)— n/N (%) (95% CI) | CR, confirmed ([2]; Overall (N = 60)): 0 n (%) | PR, confirmed ([2]; Overall (N = 60)): 9 (15.0) n (%) | partial response (two confirmed, two unconfirmed) ([2]; nine patients with unknown BRCA status and measurable disease, all ovarian carcinoma): 44.4% | objective responses ([2]; ovarian carcinoma patients with no BRCA mutation): No confirmed and one unconfirmed objective responses | primary endpoints (overall survival or complete pathologic response) [3]: did not meet their primary endpoints | Any SAE ([4]; All patients (N = 71)): 20 (28.2) n (%) | SAE leading to discontinuation ([4]; All patients (N = 71)): 8 (11.3) n (%) | SAE leading to dose interruption ([4]; All patients (N = 71)): 14 (19.7) n (%) | SAE leading to dose reduction ([4]; All patients (N = 71)): 1 (1.4) n (%) | TEAE: Any AE ([4]; All patients (N = 71)): 70 (98.6) n (%) | TEAE: At least possibly related to study drug ([4]; All patients (N = 71)): 60 (84.5) n (%) | TEAE: NCI CTCAE grade 3 or 4 ([4]; All patients (N = 71)): 28 (39.4) n (%) | Any SAE ([4]; Part 1, extension (n = 24)): 5 (20.8) n (%) | SAE leading to discontinuation ([4]; Part 1, extension (n = 24)): 3 (12.5) n (%) | SAE leading to dose interruption ([4]; Part 1, extension (n = 24)): 4 (16.7) n (%) | SAE leading to dose reduction ([4]; Part 1, extension (n = 24)): 0 n (%) | TEAE: Abdominal pain ([4]; Part 1, extension (n = 24)): 3 (12.5) n (%) | TEAE: Anemia ([4]; Part 1, extension (n = 24)): 3 (12.5) n (%) | TEAE: Any AE ([4]; Part 1, extension (n = 24)): 23 (95.8) n (%) | TEAE: At least possibly related to study drug ([4]; Part 1, extension (n = 24)): 17 (70.8) n (%) | TEAE: Constipation ([4]; Part 1, extension (n = 24)): 5 (20.8) n (%) | TEAE: Decreased appetite ([4]; Part 1, extension (n = 24)): 1 (4.2) n (%) | TEAE: Diarrhea ([4]; Part 1, extension (n = 24)): 5 (20.8) n (%) | TEAE: Fatigue ([4]; Part 1, extension (n = 24)): 7 (29.2) n (%) | TEAE: NCI CTCAE grade 3 or 4 ([4]; Part 1, extension (n = 24)): 7 (29.2) n (%) | TEAE: Nausea, Grade 1 ([4]; Part 1, extension (n = 24)): 11 (45.8) n (%) | TEAE: Nausea, Grade 2 ([4]; Part 1, extension (n = 24)): 3 (12.5) n (%) | TEAE: Nausea, Grade 3 ([4]; Part 1, extension (n = 24)): 0 n (%) | TEAE: Urinary tract infection ([4]; Part 1, extension (n = 24)): 7 (29.2) n (%) | TEAE: Vomiting ([4]; Part 1, extension (n = 24)): 11 (45.8) n (%) | TEAE: Vomiting, Grade 1 ([4]; Part 1, extension (n = 24)): 11 (45.8) n (%) | TEAE: Vomiting, Grade 2 ([4]; Part 1, extension (n = 24)): 0 n (%) | TEAE: Vomiting, Grade 3 ([4]; Part 1, extension (n = 24)): 0 n (%) | Any SAE ([4]; Part 2 (n = 35)): 11 (31.4) n (%) | SAE leading to discontinuation ([4]; Part 2 (n = 35)): 4 (11.4) n (%) | SAE leading to dose interruption ([4]; Part 2 (n = 35)): 6 (17.1) n (%) | SAE leading to dose reduction ([4]; Part 2 (n = 35)): 1 (2.9) n (%) | TEAE: Abdominal pain ([4]; Part 2 (n = 35)): 7 (20.0) n (%) | TEAE: Anemia ([4]; Part 2 (n = 35)): 10 (28.6) n (%) | TEAE: Any AE ([4]; Part 2 (n = 35)): 35 (100) n (%) | TEAE: At least possibly related to study drug ([4]; Part 2 (n = 35)): 33 (94.3) n (%) | TEAE: Constipation ([4]; Part 2 (n = 35)): 14 (40.0) n (%) | TEAE: Decreased appetite ([4]; Part 2 (n = 35)): 11 (31.4) n (%) | TEAE: Diarrhea ([4]; Part 2 (n = 35)): 10 (28.6) n (%) | TEAE: Fatigue ([4]; Part 2 (n = 35)): 14 (40.0) n (%) | TEAE: NCI CTCAE grade 3 or 4 ([4]; Part 2 (n = 35)): 17 (48.6) n (%) | TEAE: Nausea ([4]; Part 2 (n = 35)): 31 (88.6) n (%) | TEAE: Nausea, Grade 1 ([4]; Part 2 (n = 35)): 24 (68.6) n (%) | TEAE: Nausea, Grade 2 ([4]; Part 2 (n = 35)): 5 (14.3) n (%) | TEAE: Nausea, Grade 3 ([4]; Part 2 (n = 35)): 2 (5.7) n (%) | TEAE: Urinary tract infection ([4]; Part 2 (n = 35)): 5 (14.3) n (%) | TEAE: Vomiting ([4]; Part 2 (n = 35)): 17 (48.6) n (%) | TEAE: Vomiting, Grade 1 ([4]; Part 2 (n = 35)): 13 (37.1) n (%) | TEAE: Vomiting, Grade 2 ([4]; Part 2 (n = 35)): 3 (8.6) n (%) | TEAE: Vomiting, Grade 3 ([4]; Part 2 (n = 35)): 1 (2.9) n (%) | Any SAE ([4]; Part 3 (n = 12)): 4 (33.3) n (%) | SAE leading to discontinuation ([4]; Part 3 (n = 12)): 1 (8.3) n (%) | SAE leading to dose interruption ([4]; Part 3 (n = 12)): 4 (33.3) n (%) | SAE leading to dose reduction ([4]; Part 3 (n = 12)): 0 n (%) | TEAE: Abdominal pain ([4]; Part 3 (n = 12)): 4 (33.3) n (%) | TEAE: Anemia ([4]; Part 3 (n = 12)): 2 (16.7) n (%) | TEAE: Any AE ([4]; Part 3 (n = 12)): 12 (100) n (%) | TEAE: At least possibly related to study drug ([4]; Part 3 (n = 12)): 10 (83.3) n (%) | TEAE: Constipation ([4]; Part 3 (n = 12)): 4 (33.3) n (%)
